Assay: Half life in human liver microsomes at 2 uM in presence of NADPH measured up to 40 mins

A half-life at 40 min, 2 µM of 23 min was found for `Fc1cc(Cl)c2[nH]cc(-c3ccc4ccccc4n3)c2c1` in this work.

Reference: ChEMBL document CHEMBL4825767, “Development of 2-(5,6,7-Trifluoro-1H-Indol-3-yl)-quinoline-5-carboxamide as a Potent, Selective, and Orally Available Inhibitor of Human Androgen Receptor Targeting Its Binding Function-3 for the Treatment of Castration-Resistant Prostate Cancer” (J Med Chem, 2021)
